Active and inactive are the calls of the source. No cut-off for these calls is given here.
Assays:
Format in all cases: functional, cell-based
Cortical neurone [1] = assay: Neuroplasticity effect in Wistar rat cortical neurons assessed as increase in neurite number at <= 10 uM incubated for 72 […]
Cortical neurone [2] = assay: Neuroplasticity effect in Wistar rat cortical neurons assessed as increase in neurite length at <= 10 uM incubated for 72 […]
Cortical neurone [3] = assay: Neuroplasticity effect in Wistar rat cortical neurons assessed as increase in neurite branching at <= 10 uM incubated for 72 […]

Structure (SMILES)	Activity (Cortical neurone [1])	Activity (Cortical neurone [2])	Activity (Cortical neurone [3])
CN1CCC2c3ccc(Oc4ccccc4)cc3N(C)C2CC1 (stereo not drawn)	inactive	Active	inactive
CN1CCC2Nc3cc(OCc4ccccc4)ccc3C2CC1 (stereo not drawn)	Active	Active	inactive
c1ccc(COc2ccc3c(c2)NC2CCNCCC32)cc1 (stereo not drawn)	Active	Active	Active
CN1CCC2Nc3cc(OCc4ccc(F)cc4)ccc3C2CC1 (stereo not drawn)	Active	Active	Active
CN1CCC2Nc3cc(Oc4ccccc4)ccc3C2CC1 (stereo not drawn)	Active	Active	Active
Fc1ccc(Oc2ccc3c(c2)NC2CCNCCC32)cc1 (stereo not drawn)	Active	Active	Active

From ChEMBL document CHEMBL5584284, “Advancing Neurological Therapies: Integrating Novel Compounds and Clinical Trials for Enhanced Cognitive and Neuronal Health” (ACS Med Chem Lett, 2024)
